Literature values, collected in patent US20240100008A1, “ADMINISTRATION OF GLYCEROL TRIBENZOATE AND GLYCEROL PHENYLBUTYRATE FOR TREATMENT OF NEURODEGENERATIVE AND UREA CYCLE DISORDERS” (Rush University Medical Center, priority 2020, published 2024).

Experiments:
[1] = not given; remark: listed apart in the source
[2] = system: animal model of Alzheimer's disease
[3] = system: multiple sclerosis in mice
[4] = system: BDNF; details: brain cells
[5] = system: NT-3; details: brain cells
[6] = system: DJ-1; details: astrocytes and neurons

O=C(CCCc1ccccc1)OCC(COC(=O)CCCc1ccccc1)OC(=O)CCCc1ccccc1 [glycerol phenylbutyrate, Glycerol phenylbutyrate]
side effect (in vivo, po): diarrhea is a common side effect

O=C(OCC(COC(=O)c1ccccc1)OC(=O)c1ccccc1)c1ccccc1 [glyceryl (i.e. glycerol) tribenzoate, glycerol tribenzoate]
release form of sodium benzoate ([1]; in vivo): sustained-release and a slow-release form

O=C([O-])c1ccccc1.[Na+] [sodium benzoate, Sodium benzoate]
excretion from the body ([1]; through urine): quickly excreted
memory and learning [2]: protecting memory and learning
oxidative stress [2]: attenuating oxidative stress
disease process of multiple sclerosis [3]: suppresses
production of BDNF [4]: increases
production of NT-3 [5]: increases
side effects (patients, high dose sodium benzoate several times a day): feel drowsy and also suffer from nausea, vomiting and headache
DJ-1 protein level [6]: upregulates
